Laboratory results reported in ChEMBL document CHEMBL4665624, “Synthesis of 5-(4-(1H-phenanthro[9,10-d]imidazol-2-yl)benzylidene)thiazolidine-2,4-dione as promising DNA and serum albumin-binding agents and evaluation of antitumor activity” (Eur J Med Chem, 2019).

Legend:
CCRF-CEM = assay: Antitumor activity against human CCRF-CEM cells assessed as cell growth inhibition at 10 uM incubated for 48 hrs by sulforhodamine B assay; type: functional; details: read-out: GI
HL-60(TB) = assay: Antitumor activity against human HL-60(TB) cells assessed as cell growth inhibition at 10 uM incubated for 48 hrs by sulforhodamine B assay; type: functional; details: read-out: GI
K562 = assay: Antitumor activity against human K562 cells assessed as cell growth inhibition at 10 uM incubated for 48 hrs by sulforhodamine B assay; type: functional; details: read-out: GI
MOLT-4 = assay: Antitumor activity against human MOLT4 cells assessed as cell growth inhibition at 10 uM incubated for 48 hrs by sulforhodamine B assay; type: functional; details: read-out: GI
RPMI-8226 = assay: Antitumor activity against human RPMI8226 cells assessed as cell growth inhibition at 10 uM incubated for 48 hrs by sulforhodamine B assay; type: functional; details: read-out: GI
SR = assay: Antitumor activity against human SR cells assessed as cell growth inhibition at 10 uM incubated for 48 hrs by sulforhodamine B assay; type: functional; details: read-out: GI
EKVX = assay: Antitumor activity against human EKVX cells assessed as cell growth inhibition at 10 uM incubated for 48 hrs by sulforhodamine B assay; type: functional; details: read-out: GI
HOP-92 = assay: Antitumor activity against human HOP92 cells assessed as cell growth inhibition at 10 uM incubated for 48 hrs by sulforhodamine B assay; type: functional; details: read-out: GI
NCI-H226 = assay: Antitumor activity against human NCI-H226 assessed as cell growth inhibition at 10 uM incubated for 48 hrs by sulforhodamine B assay; type: functional; details: read-out: GI
NCI-H23 = assay: Antitumor activity against human NCI-H23 cells assessed as cell growth inhibition at 10 uM incubated for 48 hrs by sulforhodamine B assay; type: functional; details: read-out: GI
NCI-H460 = assay: Antitumor activity against human NCI-H460 assessed as cell growth inhibition at 10 uM incubated for 48 hrs by sulforhodamine B assay; type: functional; details: read-out: GI
NCI-H522 = assay: Antitumor activity against human NCI-H522 cells assessed as cell growth inhibition at 10 uM incubated for 48 hrs by sulforhodamine B assay; type: functional; details: read-out: GI
COLO 205 = assay: Antitumor activity against human COLO205 cells assessed as cell growth inhibition at 10 uM incubated for 48 hrs by sulforhodamine B assay; type: functional; details: read-out: GI
HCC 2998 = assay: Antitumor activity against human HCC2998 cells assessed as cell growth inhibition at 10 uM incubated for 48 hrs by sulforhodamine B assay; type: functional; details: read-out: GI
HCT-116 = assay: Antitumor activity against human HCT116 cells assessed as cell growth inhibition at 10 uM incubated for 48 hrs by sulforhodamine B assay; type: functional; details: read-out: GI
HCT-15 = assay: Antitumor activity against human HCT15 cells assessed as cell growth inhibition at 10 uM incubated for 48 hrs by sulforhodamine B assay; type: functional; details: read-out: GI
HT-29 = assay: Antitumor activity against human HT-29 cells assessed as cell growth inhibition at 10 uM incubated for 48 hrs by sulforhodamine B assay; type: functional; details: read-out: GI
KM12 = assay: Antitumor activity against human KM12 cells assessed as cell growth inhibition at 10 uM incubated for 48 hrs by sulforhodamine B assay; type: functional; details: read-out: GI
SF-268 = assay: Antitumor activity against human SF268 cells assessed as cell growth inhibition at 10 uM incubated for 48 hrs by sulforhodamine B assay; type: functional; details: read-out: GI
SF-295 = assay: Antitumor activity against human SF295 cells assessed as cell growth inhibition at 10 uM incubated for 48 hrs by sulforhodamine B assay; type: functional; details: read-out: GI
SNB-19 = assay: Antitumor activity against human SNB-19 cells assessed as cell growth inhibition at 10 uM incubated for 48 hrs by sulforhodamine B assay; type: functional; details: read-out: GI
SNB-75 = assay: Antitumor activity against human SNB-75 cells assessed as cell growth inhibition at 10 uM incubated for 48 hrs by sulforhodamine B assay; type: functional; details: read-out: GI
U-251 = assay: Antitumor activity against human U251 cells assessed as cell growth inhibition at 10 uM incubated for 48 hrs by sulforhodamine B assay; type: functional; details: read-out: GI
LOX IMVI = assay: Antitumor activity against human LOX IMVI cells assessed as cell growth inhibition at 10 uM incubated for 48 hrs by sulforhodamine B assay; type: functional; details: read-out: GI
Malme-3M = assay: Antitumor activity against human MALME-3M cells assessed as cell growth inhibition at 10 uM incubated for 48 hrs by sulforhodamine B assay; type: functional; details: read-out: GI
M14 = assay: Antitumor activity against human M14 cells assessed as cell growth inhibition at 10 uM incubated for 48 hrs by sulforhodamine B assay; type: functional; details: read-out: GI
MDA-MB-435 = assay: Antitumor activity against human MDA-MB-435 cells assessed as cell growth inhibition at 10 uM incubated for 48 hrs by sulforhodamine B assay; type: functional; details: read-out: GI
SK-MEL-28 = assay: Antitumor activity against human SK-MEL-28 cells assessed as cell growth inhibition at 10 uM incubated for 48 hrs by sulforhodamine B assay; type: functional; details: read-out: GI
UACC-62 = assay: Antitumor activity against human UACC-62 cells assessed as cell growth inhibition at 10 uM incubated for 48 hrs by sulforhodamine B assay; type: functional; details: read-out: GI
IGROV-1 = assay: Antitumor activity against human IGROV1 cells assessed as cell growth inhibition at 10 uM incubated for 48 hrs by sulforhodamine B assay; type: functional; details: read-out: GI
OVCAR-3 = assay: Antitumor activity against human OVCAR-3 cells assessed as cell growth inhibition at 10 uM incubated for 48 hrs by sulforhodamine B assay; type: functional; details: read-out: GI
OVCAR-4 = assay: Antitumor activity against human OVCAR-4 cells assessed as cell growth inhibition at 10 uM incubated for 48 hrs by sulforhodamine B assay; type: functional; details: read-out: GI
OVCAR-8 = assay: Antitumor activity against human OVCAR-8 cells assessed as cell growth inhibition at 10 uM incubated for 48 hrs by sulforhodamine B assay; type: functional; details: read-out: GI
NCI/ADR-RES = assay: Antitumor activity against human NCI/ADR-RES cells assessed as cell growth inhibition at 10 uM incubated for 48 hrs by sulforhodamine B assay; type: functional; details: read-out: GI
SK-OV-3 = assay: Antitumor activity against human SK-OV-3 cells assessed as cell growth inhibition at 10 uM incubated for 48 hrs by sulforhodamine B assay; type: functional; details: read-out: GI
786-0 = assay: Antitumor activity against human 786-0 cells assessed as cell growth inhibition at 10 uM incubated for 48 hrs by sulforhodamine B assay; type: functional; details: read-out: GI
A498 = assay: Antitumor activity against human A498 cells assessed as cell growth inhibition at 10 uM incubated for 48 hrs by sulforhodamine B assay; type: functional; details: read-out: GI
ACHN = assay: Antitumor activity against human ACHN cells assessed as cell growth inhibition at 10 uM incubated for 48 hrs by sulforhodamine B assay; type: functional; details: read-out: GI
RXF 393 = assay: Antitumor activity against human RXF 393 cells assessed as cell growth inhibition at 10 uM incubated for 48 hrs by sulforhodamine B assay; type: functional; details: read-out: GI
SN12C = assay: Antitumor activity against human SN12C cells assessed as cell growth inhibition at 10 uM incubated for 48 hrs by sulforhodamine B assay; type: functional; details: read-out: GI
UO-31 = assay: Antitumor activity against human UO-31 cells assessed as cell growth inhibition at 10 uM incubated for 48 hrs by sulforhodamine B assay; type: functional; details: read-out: GI
PC-3 = assay: Antitumor activity against human PC-3 cells assessed as cell growth inhibition at 10 uM incubated for 48 hrs by sulforhodamine B assay; type: functional; details: read-out: GI
MCF7 = assay: Antitumor activity against human MCF7 cells assessed as cell growth inhibition at 10 uM incubated for 48 hrs by sulforhodamine B assay; type: functional; details: read-out: GI
MDA-MB-231 = assay: Antitumor activity against human MDA-MB-231/ATCC cells assessed as cell growth inhibition at 10 uM incubated for 48 hrs by sulforhodamine B assay; type: functional; details: read-out: GI
Hs-578T = assay: Antitumor activity against human HS 578T cells assessed as cell growth inhibition at 10 uM incubated for 48 hrs by sulforhodamine B assay; type: functional; details: read-out: GI
BT-549 = assay: Antitumor activity against human BT-549 cells assessed as cell growth inhibition at 10 uM incubated for 48 hrs by sulforhodamine B assay; type: functional; details: read-out: GI
MDA-MB-468 = assay: Antitumor activity against human MDA-MB-468 cells assessed as cell growth inhibition at 10 uM incubated for 48 hrs by sulforhodamine B assay; type: functional; details: read-out: GI
SW-620 = assay: Antitumor activity against human SW620 cells assessed as cell growth inhibition at 10 uM incubated for 48 hrs by sulforhodamine B assay; details: SW-620, 48 h, read-out: GI

SMILES: CCN(CC)c1ccc(-c2nc3c4ccccc4c4ccccc4c3o2)c(O)c1
- inhibition of growth at 10 µM (CCRF-CEM): 41.4%
- inhibition of growth at 10 µM (HL-60(TB)): 31.4%
- inhibition of growth at 10 µM (K562): 79.7%
- inhibition of growth at 10 µM (MOLT-4): 39%
- inhibition of growth at 10 µM (RPMI-8226): 44.6%
- inhibition of growth at 10 µM (SR): 72.4%
- inhibition of growth at 10 µM (EKVX): 20.2%
- inhibition of growth at 10 µM (HOP-92): 11%
- inhibition of growth at 10 µM (NCI-H226): < 10%
- inhibition of growth at 10 µM (NCI-H23): 13.5%
- inhibition of growth at 10 µM (NCI-H460): 15%
- inhibition of growth at 10 µM (NCI-H522): 19.8%
- inhibition of growth at 10 µM (COLO 205): 12.8%
- inhibition of growth at 10 µM (HCC 2998): 18.7%
- inhibition of growth at 10 µM (HCT-116): 16.6%
- inhibition of growth at 10 µM (HCT-15): 65.1%
- inhibition of growth at 10 µM (HT-29): 64.3%
- inhibition of growth at 10 µM (KM12): 55.6%
- inhibition of growth at 10 µM (SF-268): 12%
- inhibition of growth at 10 µM (SF-295): < 10%
- inhibition of growth at 10 µM (SNB-19): < 10%
- inhibition of growth at 10 µM (SNB-75): < 10%
- inhibition of growth at 10 µM (U-251): 15.6%
- inhibition of growth at 10 µM (LOX IMVI): 75.3%
- inhibition of growth at 10 µM (Malme-3M): < 10%
- inhibition of growth at 10 µM (M14): 12.4%
- inhibition of growth at 10 µM (MDA-MB-435): < 10%
- inhibition of growth at 10 µM (SK-MEL-28): < 10%
- inhibition of growth at 10 µM (UACC-62): 11.2%
- inhibition of growth at 10 µM (IGROV-1): 19.2%
- inhibition of growth at 10 µM (OVCAR-3): 10.3%
- inhibition of growth at 10 µM (OVCAR-4): < 10%
- inhibition of growth at 10 µM (OVCAR-8): 15%
- inhibition of growth at 10 µM (NCI/ADR-RES): 11%
- inhibition of growth at 10 µM (SK-OV-3): < 10%
- inhibition of growth at 10 µM (786-0): 12.2%
- inhibition of growth at 10 µM (A498): < 10%
- inhibition of growth at 10 µM (ACHN): 23.1%
- inhibition of growth at 10 µM (RXF 393): 16.6%
- inhibition of growth at 10 µM (SN12C): < 10%
- inhibition of growth at 10 µM (UO-31): 35.2%
- inhibition of growth at 10 µM (PC-3): 20.3%
- inhibition of growth at 10 µM (MCF7): 43.2%
- inhibition of growth at 10 µM (MDA-MB-231): 35.2%
- inhibition of growth at 10 µM (Hs-578T): 10%
- inhibition of growth at 10 µM (BT-549): < 10%
- inhibition of growth at 10 µM (MDA-MB-468): 15.8%
- inhibition of growth at 10 µM (SW-620): 31.4%
